Test results published in patent US4147869A, “3,4-Dihydrocarbostyril derivatives and process for preparing the same” (Otsuka Pharmaceutical Co., Ltd., priority 1976, dated 1979).
Counter-ions that a name gives are not always drawn. Like-named read-outs stand apart in the source and are kept apart here.

Tests used:
[1] = tested on: β-adrenoreceptor; test: β-adrenergic blocking activity in anesthetized dogs: antagonism (Inhibition %) of isoprenaline-induced responses; type: in vivo, dog; conditions: 300 μg/kg i.v., 10 minutes after; for Inhibition (%) dBP (antagonism to the depression of diastolic blood pressure induced by isoprenaline) / Inhibition (%) HR (antagonism to the increase in heart rate induced by isoprenaline): isoprenaline 1 μg/kg i.v.; for Inhibition (%) AR (antagonism to the depression by isoprenaline in increase of air-way resistance induced by histamine): isoprenaline 1 μg/kg, histamine 5 μg/kg i.v.
Procedure: The β-adrenergic blocking activity of the compounds of this invention was determined as follows:
Male hybrid adult dogs, weighing 10 to 16 kg, were anesthesized with sodium pentobarbital administered intravenously at a level of 30 mg/kg of body weight, and a cannula was inserted into the trachea of each of the anesthesized dogs. In order to avoid blood coagulation, heparin was administered intravenously at a level of 1000 units and thereafter a cannula was inserted into the right femoral artery. The experiments were conducted under artificial respiration at a rate of 20 ml/kg, 18 r.p.m.
The above parameters were continuously recorded on a polygraph (8S 28 Type, tradename of Sanei Sokki Co., Japan). During the experiment, gallamine was administered intravenously at a dosage of 3 mg/kg at one-hour intervals to avoid fluctuation of air-way resistance.
The β-adrenergic blocking activity of each of the test compounds was evaluated in terms of antagonism (Inhibition %) to the depression at the diastolic blood pressure (dBP) and to the increase in the heart rate induced by the intravenous administration of isoprenaline (1 μg/kg) and in terms of antagonism (Inhibition %) to the depression by isoprenaline in increase of air-way resistance which was induced by intravenous administration of histamine (5 μg/kg). In this case, histamine was administered 45 seconds after the administration of isoprenaline.

[2] = acute toxicity (LD50) by intravenous and oral administration; conditions: rat, in vivo, fasted 12 hours
Procedure: Further, the acute toxicity of the compounds of the present invention having the formula (I) was determined by intravenous administration (i.v.) and oral administration (p.o.) in 5 to 6 groups of […] (dd strain; body weight, 18 to 22 g; 10 rats in each group) which have been fasted for 12 hours prior to the test.

[3] = iv, male rats, i.v., read-out: LD50 i.v.
[4] = po, male rats, p.o., read-out: LD50 p.o.

CC(=O)Nc1ccc2c(c1OCC(O)CNC(C)C)CCC(=O)N2 (centres unmarked) [compound 1]
Inhibition (%) dBP (antagonism to the depression of diastolic blood pressure induced by isoprenaline) [1]: 17.8% | Inhibition (%) HR (antagonism to the increase in heart rate induced by isoprenaline) [1]: 25.3% | Inhibition (%) AR (antagonism to the depression by isoprenaline in increase of air-way resistance induced by histamine) [1]: 11.3%

COc1ccc(CCNCC(O)COc2ccc(NC(C)=O)c3c2CCC(=O)N3)cc1OC (centres unmarked) [compound 2]
Inhibition (%) dBP (antagonism to the depression of diastolic blood pressure induced by isoprenaline) [1]: 25.5% | Inhibition (%) HR (antagonism to the increase in heart rate induced by isoprenaline) [1]: 30.2% | Inhibition (%) AR (antagonism to the depression by isoprenaline in increase of air-way resistance induced by histamine) [1]: 10.8% | LD50 ([2]; iv, female rats, i.v., read-out: LD50 i.v.): 142 mg/kg | LD50 [2, 3]: 158 mg/kg | LD50 ([2]; po, female rats, p.o., read-out: LD50 p.o.): 1230 mg/kg | LD50 [2, 4]: 1350 mg/kg

COc1ccc(OCCNCC(O)COc2ccc(NC(N)=O)c3c2CCC(=O)N3)cc1 (centres unmarked) [compound 3]
Inhibition (%) dBP (antagonism to the depression of diastolic blood pressure induced by isoprenaline) [1]: 31.8% | Inhibition (%) HR (antagonism to the increase in heart rate induced by isoprenaline) [1]: 39.6% | Inhibition (%) AR (antagonism to the depression by isoprenaline in increase of air-way resistance induced by histamine) [1]: 14.7% | LD50 [2, 3]: 156 mg/kg | LD50 [2, 4]: 1340 mg/kg

CCOC(=O)Nc1ccc(OCC(O)CNCCOc2ccc(C(N)=O)cc2)c2c1NC(=O)CC2 (centres unmarked) [compound 4]
Inhibition (%) dBP (antagonism to the depression of diastolic blood pressure induced by isoprenaline) [1]: 3.4% | Inhibition (%) HR (antagonism to the increase in heart rate induced by isoprenaline) [1]: 47.3% | Inhibition (%) AR (antagonism to the depression by isoprenaline in increase of air-way resistance induced by histamine) [1]: 2.5% | LD50 [2, 3]: 145 mg/kg | LD50 [2, 4]: 1210 mg/kg

CC(NCC(O)COc1ccc(NC(=O)C2CCCCC2)c2c1CCC(=O)N2)c1ccccc1 (centres unmarked) [compound 5]
Inhibition (%) dBP (antagonism to the depression of diastolic blood pressure induced by isoprenaline) [1]: 42.4% | Inhibition (%) HR (antagonism to the increase in heart rate induced by isoprenaline) [1]: 53.3% | Inhibition (%) AR (antagonism to the depression by isoprenaline in increase of air-way resistance induced by histamine) [1]: 23.2%

COc1ccc(CCNCC(O)COc2c(NC(C)=O)ccc3c2CCC(=O)N3)cc1OC (centres unmarked) [compound 6]
Inhibition (%) dBP (antagonism to the depression of diastolic blood pressure induced by isoprenaline) [1]: 11.3% | Inhibition (%) HR (antagonism to the increase in heart rate induced by isoprenaline) [1]: 37.2% | Inhibition (%) AR (antagonism to the depression by isoprenaline in increase of air-way resistance induced by histamine) [1]: 12.6% | LD50 [2, 3]: 160 mg/kg | LD50 [2, 4]: 1380 mg/kg

Cc1ccc(S(=O)(=O)Nc2ccc(OCC(O)CNCCOc3ccc(C(N)=O)cc3)c3c2NC(=O)CC3)cc1 (centres unmarked) [compound 7]
Inhibition (%) dBP (antagonism to the depression of diastolic blood pressure induced by isoprenaline) [1]: 11.4% | Inhibition (%) HR (antagonism to the increase in heart rate induced by isoprenaline) [1]: 26.8% | Inhibition (%) AR (antagonism to the depression by isoprenaline in increase of air-way resistance induced by histamine) [1]: 10.2% | LD50 [2, 3]: 115 mg/kg | LD50 [2, 4]: 1120 mg/kg

Cc1ccccc1N1CCN(CC(O)COc2ccc(NS(C)(=O)=O)c3c2CCC(=O)N3)CC1 (centres unmarked) [compound 8]
Inhibition (%) dBP (antagonism to the depression of diastolic blood pressure induced by isoprenaline) [1]: 6.4% | Inhibition (%) HR (antagonism to the increase in heart rate induced by isoprenaline) [1]: 21.0% | Inhibition (%) AR (antagonism to the depression by isoprenaline in increase of air-way resistance induced by histamine) [1]: 7.1%

NC(=O)Nc1ccc(OCC(O)CN2CCN(c3ccccc3Cl)CC2)c2c1NC(=O)CC2 (centres unmarked) [compound 9]
Inhibition (%) dBP (antagonism to the depression of diastolic blood pressure induced by isoprenaline) [1]: 15.3% | Inhibition (%) HR (antagonism to the increase in heart rate induced by isoprenaline) [1]: 23.6% | Inhibition (%) AR (antagonism to the depression by isoprenaline in increase of air-way resistance induced by histamine) [1]: 8.9%

COc1ccccc1N1CCN(CC(O)COc2ccc(NC(C)=O)c3c2CCC(=O)N3)CC1 (centres unmarked) [compound 10]
Inhibition (%) dBP (antagonism to the depression of diastolic blood pressure induced by isoprenaline) [1]: 11.6% | Inhibition (%) HR (antagonism to the increase in heart rate induced by isoprenaline) [1]: 21.7% | Inhibition (%) AR (antagonism to the depression by isoprenaline in increase of air-way resistance induced by histamine) [1]: 6.2% | LD50 [2, 3]: 125 mg/kg | LD50 [2, 4]: 1170 mg/kg

CC(C)(C)NCC(O)COc1cccc2c1CCC(=O)N2 (centres unmarked) [compound 11, 5-(3-t-butylamino-2-hydroxy)propoxy-3,4-dihydrocarbostyril hydrochloride, reference compound]
Inhibition (%) dBP (antagonism to the depression of diastolic blood pressure induced by isoprenaline) [1]: 100% | Inhibition (%) HR (antagonism to the increase in heart rate induced by isoprenaline) [1]: 100% | Inhibition (%) AR (antagonism to the depression by isoprenaline in increase of air-way resistance induced by histamine) [1]: 100%

COc1ccc(CCNCC(O)COc2cccc3c2CCC(=O)N3)cc1OC (centres unmarked) [compound 13, 5-(3,4-dimethoxyphenethylamino-2-hydroxy)propoxy-3,4-dihydrocarbostyril hydrochloride, reference compound]
Inhibition (%) dBP (antagonism to the depression of diastolic blood pressure induced by isoprenaline) [1]: 65.6% | Inhibition (%) HR (antagonism to the increase in heart rate induced by isoprenaline) [1]: 87.2% | Inhibition (%) AR (antagonism to the depression by isoprenaline in increase of air-way resistance induced by histamine) [1]: 79.1%
